ChEMBL document CHEMBL5338706, “Discovery of a potent and selective proteolysis targeting chimera (PROTAC) degrader of NSD3 histone methyltransferase” (Eur J Med Chem, 2022)
Activity calls are given as the source filed them. The calls are words filed in the database; no cut-off is given here.

Columns and labels:
NCI-H1703 [1] = test: Induction of apoptosis in human NCI-H1703 cells assessed as decrease in NSD3 protein expression at […] by measuring fold change by Western blot analysis relative to control; type: functional; conditions: dose 7.5 µM
[2] = Downregulation of c-Myc level in human NCI-H1703 cells at 3 uM by measuring fold change by Western blot analysis relative to control; type: functional
[3] = molecular target: T1, Histone-lysine N-methyltransferase NSD3 (Homo sapiens) (UniProt Q9BZ95); test: (§1) Induction of NSD3 degradation in human NCI-H1703 cells incubated for 72 hrs by Western blot analysis; type: cell-based; conditions: dose 0.001-5 µM
T1 sequence (whole entry): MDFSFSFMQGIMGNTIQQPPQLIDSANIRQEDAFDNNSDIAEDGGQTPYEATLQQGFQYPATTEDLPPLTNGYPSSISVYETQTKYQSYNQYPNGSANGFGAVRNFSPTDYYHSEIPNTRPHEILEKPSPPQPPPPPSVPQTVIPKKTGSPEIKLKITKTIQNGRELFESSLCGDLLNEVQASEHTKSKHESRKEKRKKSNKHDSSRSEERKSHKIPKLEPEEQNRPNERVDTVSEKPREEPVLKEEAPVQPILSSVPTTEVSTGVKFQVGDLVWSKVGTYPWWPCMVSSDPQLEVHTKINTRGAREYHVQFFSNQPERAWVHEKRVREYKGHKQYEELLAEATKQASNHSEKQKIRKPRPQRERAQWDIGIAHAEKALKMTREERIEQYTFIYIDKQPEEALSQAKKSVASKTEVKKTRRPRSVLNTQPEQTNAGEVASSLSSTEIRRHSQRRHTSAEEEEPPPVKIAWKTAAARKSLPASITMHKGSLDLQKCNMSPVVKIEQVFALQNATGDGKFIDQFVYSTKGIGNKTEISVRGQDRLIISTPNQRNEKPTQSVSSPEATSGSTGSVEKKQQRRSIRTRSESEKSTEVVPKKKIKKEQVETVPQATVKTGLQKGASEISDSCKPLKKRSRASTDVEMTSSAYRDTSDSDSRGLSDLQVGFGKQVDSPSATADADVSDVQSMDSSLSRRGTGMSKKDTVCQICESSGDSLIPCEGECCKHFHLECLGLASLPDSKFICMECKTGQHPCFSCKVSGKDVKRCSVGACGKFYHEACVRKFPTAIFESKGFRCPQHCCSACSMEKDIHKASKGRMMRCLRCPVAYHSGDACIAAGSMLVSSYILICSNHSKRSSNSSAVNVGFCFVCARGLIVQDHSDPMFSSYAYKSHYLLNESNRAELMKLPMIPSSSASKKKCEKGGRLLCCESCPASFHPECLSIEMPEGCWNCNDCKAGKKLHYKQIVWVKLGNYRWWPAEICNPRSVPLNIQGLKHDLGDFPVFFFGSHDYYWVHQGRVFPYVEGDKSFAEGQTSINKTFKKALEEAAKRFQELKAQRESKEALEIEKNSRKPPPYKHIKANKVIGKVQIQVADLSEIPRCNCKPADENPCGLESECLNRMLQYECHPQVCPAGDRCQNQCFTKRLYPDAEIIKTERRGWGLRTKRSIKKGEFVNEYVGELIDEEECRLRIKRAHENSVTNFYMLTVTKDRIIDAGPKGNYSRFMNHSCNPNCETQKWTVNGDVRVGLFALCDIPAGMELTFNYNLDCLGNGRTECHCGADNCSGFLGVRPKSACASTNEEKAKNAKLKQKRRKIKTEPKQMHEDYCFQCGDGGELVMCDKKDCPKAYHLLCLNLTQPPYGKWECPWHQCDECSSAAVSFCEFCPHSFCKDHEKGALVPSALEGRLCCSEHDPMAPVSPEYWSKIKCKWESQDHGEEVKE

[4] = molecular target: T2, Histone-lysine N-methyltransferase NSD3 (Homo sapiens, UniProt Q9BZ95); test: as §1; type: cell-based
T2 sequence (Q9BZ95 whole entry): T1 sequence (whole entry)

NCI-H1703 [5] = test: Downregulation of c-Myc level in human NCI-H1703 cells at 3 to […] by Western blot analysis; type: functional, cell-based; conditions: dose 3-7.5 µM
[6] = Downregulation of c-Myc level in human NCI-H520 cells at 5 uM by measuring fold change by Western blot analysis relative to control; type: functional
[7] = molecular target: T1, Histone-lysine N-methyltransferase NSD3 (Homo sapiens); test: Induction of NSD3 degradation in human NCI-H1703 cells at 5 uM measured within 12 hrs by Western blot analysis; type: cell-based
[8] = molecular target: T1, Histone-lysine N-methyltransferase NSD3 (Homo sapiens); test: Induction of NSD3 degradation in human NCI-H1703 cells at […] incubated for 48 hrs in presence of MG132 by Western blot analysis; type: cell-based; conditions: dose 7.5 µM
[9] = molecular target: T1, Histone-lysine N-methyltransferase NSD3 (Homo sapiens); test: Induction of NSD3 degradation in human NCI-H1703 cells measured upto 72 hrs by Western blot analysis; type: cell-based; conditions: dose 0.001-10 µM
NCI-H1703 [10] = test: Induction of apoptosis in human NCI-H1703 cells assessed as decrease in MCL-1 protein expression at […] by measuring fold change by Western blot analysis relative to control; type: functional; conditions: dose 7.5 µM
A549 = test: Antitumor activity against human A549 cells xenografted mouse model assessed as reduction in NSD3 expression level at 100 mg/kg, ip measured within 36 hrs by Western blot analysis; type: functional, organism-based
NCI-H1703 [11] = test: Induction of apoptosis in human NCI-H1703 cells assessed as necrotic cells at […] measured after 72 hrs by PI/Annexin-V staining based flow cytometry analysis (reference value: 2.80% ); type: functional; conditions: dose 7.5 µM
[12] = molecular target: T1, Histone-lysine N-methyltransferase NSD3 (Homo sapiens); test: Induction of NSD3 degradation in human A549 cells assessed as reduction of NSD3 protein at 7.5 measured after 48 hrs by Western blot analysis; type: cell-based
NCI-H1703 [13] = test: Induction of apoptosis in human NCI-H1703 cells assessed as late apoptotic cells at 10 uM measured after 72 hrs by PI/Annexin-V staining based flow cytometry analysis (reference value: 3.00% ); type: functional
NCI-H1703 [14] = test: Induction of apoptosis in human NCI-H1703 cells assessed as necrotic cells at 5 uM measured after 72 hrs by PI/Annexin-V staining based flow cytometry analysis (reference value: 2.80% ); type: functional
NCI-H1703 [15] = test: Induction of apoptosis in human NCI-H1703 cells assessed as decrease in Bcl-XL protein expression at […] by measuring fold change by Western blot analysis relative to control; type: functional; conditions: dose 7.5 µM
NCI-H1703 [16] = test: Induction of apoptosis in human NCI-H1703 cells assessed as decrease in MCL-1 protein expression at 5 uM by measuring fold change by Western blot analysis relative to control; type: functional
NCI-H1703 [17] = test: Downregulation of ALDH1A1 in human NCI-H1703 cells at […] measured after 72 hrs by RNA sequencing assay; type: functional, cell-based; conditions: dose 7.5 µM
[18] = molecular target: T1, Histone-lysine N-methyltransferase NSD3 (Homo sapiens); test: Induction of NSD3 degradation in human NCI-H1703 cells at 0.001 to 5 uM by Western blot analysis; type: cell-based; conditions: dose 0.001-5 µM, time 12-72 hrs, TDE = time-dependent effect

Cc1cc(CNCCCCCCCCCCC(=O)N[C@H](C(=O)N2C[C@H](O)C[C@H]2C(=O)N[C@@H](C)c2ccc(-c3scnc3C)cc2)C(C)(C)C)cc(C)c1-c1ncn(C)c1-c1ccnc2cc(F)ccc12
fold change (FC) (NCI-H1703 [1]): 0.73 | fold change (FC) [2]: 0.86 | Activity [3]: Dose-Dependent Effect | EC50 [4]: 1430 nM | Activity (NCI-H1703 [5]): Active | fold change (FC) [6]: 0.97 | Activity [7]: Active | Activity [8]: inactive | Activity [9]: Dose-Dependent Effect | fold change (FC) (NCI-H1703 [10]): 0.54 | Activity (A549): Active | Activity (NCI-H1703 [11]): 2.99% | Activity [12]: Active | Activity (NCI-H1703 [13]): 62.9% | Activity (NCI-H1703 [14]): 7.21% | fold change (FC) (NCI-H1703 [15]): 0.67 | fold change (FC) (NCI-H1703 [16]): 0.8 | Activity (NCI-H1703 [17]): Active | Activity [18]: Tde
